Assay results taken from US20030050212A1, “Constituent of washing aid having anti-bacterial or the like component” (priority 2001, published 2003).

Key:
bacteria = assay: anti-bacterial effect of Ag ions; conditions: Ag ions at 1 ppm concentration
Excerpt: Anti-bacterial material, for example silver ions, of high concentration dispersions towards the low concentration area. By means of a physical stirring and agitating, the anti-bacterial is adsorbed onto the fabric under cleaning.

oral test LD 50 = type: in vivo
Excerpt: (§1) In actual application, 1 g of MFS 350 anti-bacterial material into 1 kg of raw material can provide a satisfactory result. Of course, the concentration can be adjusted in accordance with the requirements. In experiment, Ag ions oral test LD 50 is larger than 5000 mg1 kg, lethal test LD 50 is larger than 2000 mg1 Kg, which is relatively safe. […] The preferable metallic powder is powdery particle of nanometer in size having an excellent surface ratio. That is, under the same physical condition, a reaction surface is larger; preferably the physical size is 200 nanometer, preferably in the range of 50 to 100 nanometers.

lethal test LD 50 = conditions: in vivo
Excerpt: as §1

In the case of [Ag+] [Ag ions], the anti-bacterial effect (bacteria) is reported as “possess anti-bacterial effect”, the “oral test LD 50” value (oral test LD 50) is reported as greater than 5000 mg1 kg and the “lethal test LD 50” value (lethal test LD 50) is reported as greater than 2000 mg1 Kg.
